Source: publication PMC10296347, “Identification of the Stapled α-Helical Peptide ATSP-7041 as a Substrate and Strong Inhibitor of OATP1B1 In Vitro” (Biomolecules, 2023)

Biological target: CYP2C9 (Homo sapiens, UniProt P11712)
Conditions: microsomes
Protocol: Text S1. Supplementary Materials and Methods.
Male Human Liver Pooled S9; Tokyo, Japan). Midazolam, midazolam-d4, 1ʹ-hydroxymidazolam, testosterone, testosterone-d3, and 6β-hydroxytestosterone, were purchased […]
(Fluorometric)) were purchased from BioVision. Inc. (Milpitas, CA, USA). Reversed vesicles […]
were commercially available.
2. Evaluation of ATSP-7041 as a substrate of CYPs
S9, with or without the NADPH generation system. S9 (A), at a 2 mg/mL protein concentration […]
The reaction solution (400 μL) was then
3. Evaluation of ATSP-7041 as an inhibitor of CYPs […]
the manufacturer’s protocol. […]
the indicated periods of times. The substrates, positive control inhibitors, and fluorescence […]
Table S1. Parameters used in LC/MS analysis.
Table S2. Substrates and positive control inhibitors used for CYPs inhibition screening.
Residual activity (% of control, i.e. without test chemical for inhibition) of human CYPs with ATSP-7041 (10 μM) in CYPs inhibition screening. The activity of CYPs were calculated as background-corrected reaction rates using the linear phase of reaction progress […]
curve. Data are presented as the mean ± S.D. (n = 3). *
Analyte Transition Polarity Ion source voltage Source temp. Collision energy LC gradient program […]
5% B (0-1 min) - 45% B (3 min)
CYP isoform Substrate Concentration Positive control inhibitor Concentration Detection Kit No. […]

Chain of CYP2C9 (P11712 whole entry): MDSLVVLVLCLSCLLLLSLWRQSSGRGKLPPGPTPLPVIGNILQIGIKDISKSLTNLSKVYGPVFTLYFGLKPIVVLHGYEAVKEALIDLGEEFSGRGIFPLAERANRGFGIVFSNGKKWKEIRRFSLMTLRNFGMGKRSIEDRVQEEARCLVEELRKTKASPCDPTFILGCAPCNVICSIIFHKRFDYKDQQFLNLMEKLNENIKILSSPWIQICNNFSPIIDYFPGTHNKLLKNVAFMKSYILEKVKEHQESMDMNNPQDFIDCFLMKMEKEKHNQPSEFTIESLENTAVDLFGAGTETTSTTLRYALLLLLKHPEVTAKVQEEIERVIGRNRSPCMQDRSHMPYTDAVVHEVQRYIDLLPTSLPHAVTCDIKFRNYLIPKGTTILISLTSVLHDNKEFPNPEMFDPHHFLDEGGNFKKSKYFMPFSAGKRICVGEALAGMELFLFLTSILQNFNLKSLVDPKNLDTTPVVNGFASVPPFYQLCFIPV

## Nc1ccc(S(=O)(=O)Nc2ccnn2-c2ccccc2)cc1 [Sulfaphenazole]
  Residual activity (% of control) CYP2C9, positive control inhibitor: 8.59 ± 2.06 % of control
